Reference: patent US4238620A, “Dibenz[b,f]oxepin and dibenzo[b,f]thiepin derivatives, process for preparation thereof, method of using the same, and compositions thereof” (priority 1978, dated 1980)
“Also recorded” adds a separate entry of the source.

Assays:
[1] = tested on: Carrageenin-induced hind paw oedema in rats; test: Carrageenin-induced hind paw oedema in rats (CAR method), acute inflammation; type: in vivo; details: Rattus norvegicus, po, read-out: Anti-inflammatory activity ED50, acute inflammation, CAR
Method: (§1) (1) Effect on acute inflammation:
(a) Carrageenin-induced hind paw oedema in rats (CAR method)
The test was carried out according to the method described in Proc. Soc. Exp. Biol. Med., 111, 544 (1962).

[2] = tested on: Ultraviolet-induced erythema in guinea-pigs; test: Ultraviolet-induced erythema in guinea-pigs (UVE method), acute inflammation; type: in vivo; details: Cavia porcellus, po, read-out: Anti-inflammatory activity ED50, acute inflammation, UVE
Method: as §1
(b) Ultraviolet-induced erythema in guinea-pigs (UVE method)
The test was carried out according to the method described in Arch. Int. Pharmacodyn. Ther., 116, 261 (1958).

[3] = tested on: adjuvant-induced arthritis in rats; test: Therapeutic activity on adjuvant-induced arthritis in rats (AAT method), subacute and chronic inflammation; type: in vivo; details: Rattus norvegicus, po, read-out: Minimum Effective Dose, subacute and chronic inflammation, AAT*
Method: (§2) (2) Effect on subacute and chronic inflammations:
(a) Therapeutic activity on adjuvant-induced arthritis in rats (AAT method)
The test was carried out according to the method described in Brit. J. Pharmacol., 21, 127 (1963) and Japan J. Pharmacol., 23, 58 (1973).

[4] = tested on: AgNO3-induced joint pain in rats; test: AgNO3-induced joint pain in rats (AGP method), analgesic activity; type: in vivo; details: Rattus norvegicus, po, read-out: Analgesic activity ED50, AGP
Method: (§3) TEST 2. ANALGESIC ACTIVITY
(a) AgNO3 -induced joint pain in rats (AGP method)
The test was carried out according to the method described in J. Pharmacol. Expt. Ther., 98, 19 (1950)

[5] = tested on: Acetic acid (AcOH)-induced writhing in rats; test: Acetic acid (AcOH)-induced writhing in rats (ACW method), analgesic activity; type: in vivo; details: Rattus norvegicus, po, read-out: Analgesic activity ED50, ACW
Method: as §3
(b) Acetic acid (AcOH)-induced writhing in rats (ACW method)
The test was carried out according to the method described in Arzneim. Forsch., 25, 1505 (1975).

[6] = tested on: Yeast-induced fever in rats; test: Yeast-induced fever in rats (YEF method), antipyretic activity; type: in vivo; details: Rattus norvegicus, po, read-out: Antipyretic activity ED50, YEF
Method: TEST 3. ANTIPYRETIC ACTIVITY
Yeast-induced fever in rats (YEF method)
The test was carried out according to the method described in Arzneim. Forsch., 13, 338 (1963).

[7] = Gastrointestinal ulcer formation in fed rats (ulcerogenicity); type: in vivo; details: rat, in vivo, po, fed rats; read-out: UD50 (50% ulcer forming dose)
Method: (§4) TEST 4. ULCEROGENICITY IN GASTROINTESTINAL TRACT
(§5) Gastrointestinal ulcer formation in fed rats
(§6) The test was carried out according to the method described in Science, 170, 183 (1970).

[8] = tested on: Gastrointestinal ulcer formation in fed rats; test: as above; type: in vivo; details: for ulcerogenicity relative to compound 2: fraction of that of compound 2
Method: as §4, §5, §6

[9] = in vivo; details: rat, po, rats, once daily for 5 days, mortality on 6th day, read-out: LD50 Repeated
Method: (§7) (b) Repeated administrations in rats
(§8) Test compounds were orally administered once daily for 5 days, and LD50 -value was calculated from the mortality on the 6th day.

[10] = Overall comparison of anti-inflammatory, analgesic and antipyretic activities (Tests 1 to 3); type: in vivo, rats; guinea-pigs; details: for anti-inflammatory, analgesic and antipyretic activities compared with indomethacin: vs indomethacin (compound 3)
Source text: (§9) From these diagrams, the correlation between the pharmacological activity of each compound and its ulcerogenicity and toxicity, i.e. the safety margin of each compound, can be clearly seen. In these Figures, the lines and letters have the following meanings:
(§10) The following conclusions can be drawn from Tables I to III and FIGS. 1 and 2. In the following description, the therapeutic index means LD50 /ED50 (or MED), and the safety index means UD50 /ED50 (or MED). The safety margin of a given compound is broader when it has larger therapeutic and or safety indices.

[11] = type: in vivo; details: for average therapeutic index relative to compound 2 / breadth of safety margin compared with compound 2: vs compound 2; for therapeutic index compared with indomethacin: vs indomethacin
Source text: In the following description, the therapeutic index means LD50 /ED50 (or MED), and the safety index means UD50 /ED50 (or MED).

[12] = Safety index (UD50/ED50 or MED), separation of activity from ulcerogenicity; type: in vivo; details: for separation of anti-inflammatory, analgesic and antipyretic activities from ulcerogenicity: FIGS. 1 and 2, vs indomethacin; for average safety index relative to compound 2: vs compound 2
Source text: as §9, §10

[13] = tested on: rats; test: Overall comparison of lethal toxicity (Test 5); type: in vivo; details: for toxicity relative to compound 2: fraction of that of compound 2; for toxicity compared with indomethacin (in words): vs indomethacin
Method: (a) Single administration in rats
as §7, §8

[14] = tested on: Felt pellet-induced granuloma formation in rats; test: Felt pellet-induced granuloma formation in rats (FGF method), subacute and chronic inflammation; type: in vivo; details: Rattus norvegicus, po, read-out: Minimum Effective Dose, subacute and chronic inflammation, FGF*
Method: as §2
(b) Felt pellet-induced granuloma formation in rats (FGF method)
The test was carried out according to the method described in J. Amer. Pharm. Assoc., 46, 515 (1957) and Chem. Pharm. Bull., 23, 1446 (1975).

[15] = cited from earlier work
[16] = cited from earlier work; remark: listed apart in the source
[17] = in vivo; details: rat, po, rats, single administration, 7th day, read-out: LD50 Single

## Cc1ccc2c(c1)CC(=O)c1cc(C(C)C(=O)OCCOCCO)ccc1S2 (racemic) [compound G, 2-(2-Hydroxyethoxy)ethyl dl-2-(8-methyl-10,11-dihydro-11-oxodibenzo[b,f]thiepin-2-yl)propionate]
[1]
  ED50: 5.94 mg/kg
[2]
  ED50: 2.52 mg/kg
[3]
  minimal effective dose: ≤ 0.2 mg/kg/day
[4]
  ED50: 0.96 mg/kg
[5]
  ED50: 0.33 mg/kg
[6]
  ED50: 0.041 mg/kg
[7]
  TD50: 2.94 mg/kg
[8]
  ulcerogenicity relative to compound 2: about 1/5
[9]
  LD50 at 144 h: > 16 mg/kg
[10]; AGP, ACW, vs compounds 2 and C
  analgesic activity compared with compounds 2 and C: stronger than those of compounds 2 and C
[10]; vs compounds 2 and C
  antiinflammatory and antipyretic activities compared with compounds 2 and C: weaker than those of compounds 2 and C
[10]
  anti-inflammatory, analgesic and antipyretic activities compared with indomethacin: equivalent or superior to those of indomethacin
[11]; LD50/ED50 (or MED)
  average therapeutic index relative to compound 2: more than 8 times
[11]; safety margin
  breadth of safety margin compared with compound 2: far superior to compound 2
[11]
  therapeutic index compared with indomethacin: far larger therapeutic indices than indomethacin
[12]
  separation of anti-inflammatory, analgesic and antipyretic activities from ulcerogenicity: more separated from ulcerogenicity in the gastrointestinal tract than in indomethacin
[12]; UD50/ED50 (or MED)
  average safety index relative to compound 2: about 5 times
[13]
  toxicity relative to compound 2: less than 1/7
  toxicity compared with indomethacin (in words): far weaker than those of indomethacin

## Cc1ccc2c(c1)CC(=O)c1cc(C(C)C(=O)O)ccc1S2 (racemic) [compound C, dl-2-(8-Methyl-10,11-dihydro-11-oxodibenzo[b,f]thiepin-2-yl)propionic acid]
[1]
  ED50: 2.08 mg/kg
[2]
  ED50: 0.85 mg/kg
[3]
  minimal effective dose: < 0.2 mg/kg/day
[14]
  minimal effective dose: 1 mg/kg/day
[4]
  ED50: 1.41 mg/kg
[5]
  ED50: 0.84 mg/kg
[6]
  ED50: 0.015 mg/kg
[7]
  TD50: 2.76 mg/kg
[8]
  ulcerogenicity relative to compound 2: about 1/4
[9]
  LD50 at 144 h: > 12 mg/kg
[10]; vs compound 2
  pharmacological activities compared with compound 2: comparable or slightly inferior to those of compound 2
[10]
  anti-inflammatory, analgesic and antipyretic activities compared with indomethacin: equivalent or superior to those of indomethacin
[11]; LD50/ED50 (or MED)
  average therapeutic index relative to compound 2: more than 5 times
[11]; safety margin
  breadth of safety margin compared with compound 2: far superior to compound 2
[11]
  therapeutic index compared with indomethacin: far larger therapeutic indices than indomethacin
[12]
  separation of anti-inflammatory, analgesic and antipyretic activities from ulcerogenicity: more separated from ulcerogenicity in the gastrointestinal tract than in indomethacin; also recorded: Especially good separation
[12]; UD50/ED50 (or MED)
  average safety index relative to compound 2: about 4 times
[13]
  toxicity relative to compound 2: less than 1/6
  toxicity compared with indomethacin (in words): far weaker than those of indomethacin

## O=C(O)Cc1ccc2c(c1)CC(=O)c1ccccc1S2 [10,11-dihydro-10-oxodibenzo[b,f]thiepin-2-acetic acid]
[15]
  anti-inflammatory activity relative to phenylbutazone: 0.4 time
[16]
  analgesic activity relative to aspirin: equivalent to that of aspirin

## Cc1ccc2c(c1)CC(=O)c1cc(C(C)C(=O)OCCOCCO)ccc1O2 (racemic) [compound E, 2-(2-Hydroxyethoxy)ethyl dl-2-(8-methyl-10,11-dihydro-11-oxodibenz[b,f]oxepin-2-yl)propionate]
[1]
  ED50: 3.61 mg/kg
[2]
  ED50: 1.41 mg/kg
[3]
  minimal effective dose: 0.2 mg/kg/day
[14]
  minimal effective dose: 2 mg/kg/day
[4]
  ED50: 3.8 mg/kg
[5]
  ED50: 0.27 mg/kg
[6]
  ED50: 0.055 mg/kg
[7]
  TD50: 4.04 mg/kg
[8]; ulcerogenicity together with toxicity, vs compound A
  ulcerogenicity and toxicity compared with compound A: weaker than those of compound A
[17]
  LD50 at 168 h: 219 mg/kg
[9]
  LD50 at 144 h: > 16 mg/kg
[10]; vs compound 1
  pharmacological activities compared with compound 1: equivalent to, or more potent, than those of compound 1
[10]; vs compound A
  pharmacological activities compared with compound A: somewhat inferior to those of compound A
[10]
  anti-inflammatory, analgesic and antipyretic activities compared with indomethacin: equivalent or superior to those of indomethacin
[11]; safety and therapeutic indices, vs compound A
  average safety and therapeutic indices compared with compound A: comparable to those of compound A
[11]; safety margin, vs compound 1
  breadth of safety margin compared with compound 1: better
[11]
  therapeutic index compared with indomethacin: far larger therapeutic indices than indomethacin
[12]
  separation of anti-inflammatory, analgesic and antipyretic activities from ulcerogenicity: more separated from ulcerogenicity in the gastrointestinal tract than in indomethacin; also recorded: Especially good separation
[13]
  toxicity compared with indomethacin (in words): far weaker than those of indomethacin

## Cc1ccc2c(c1)CC(=O)c1cc(C(C)C(=O)O)ccc1O2 (racemic) [compound A, dl-2-(8-Methyl-10,11-dihydro-11-oxodibenz[b,f]oxepin-2-yl)propionic acid]
[1]
  ED50: 3.38 mg/kg
[2]
  ED50: 0.3 mg/kg
[3]
  minimal effective dose: 0.2 mg/kg/day
[14]
  minimal effective dose: 2 mg/kg/day
[4]
  ED50: 2.6 mg/kg
[5]
  ED50: 0.28 mg/kg
[6]
  ED50: 0.021 mg/kg
[7]
  TD50: 2.97 mg/kg
[17]
  LD50 at 168 h: 147 mg/kg
[9]
  LD50 at 144 h: > 12 mg/kg
[10]; vs compound 1
  pharmacological activities compared with compound 1: stronger pharmacological activities in all the methods tested
  pharmacological potency and/or safety margin compared with compound 1: superior to compound 1 not only in pharmacological activities but also in safety margin
[10]
  anti-inflammatory, analgesic and antipyretic activities compared with indomethacin: equivalent or superior to those of indomethacin
[11]; LD50/ED50 (or MED), vs compound 1
  average therapeutic index relative to compound 1: about 3.7 times
[11]
  therapeutic index compared with indomethacin: far larger therapeutic indices than indomethacin
[12]
  separation of anti-inflammatory, analgesic and antipyretic activities from ulcerogenicity: more separated from ulcerogenicity in the gastrointestinal tract than in indomethacin
[12]; UD50/ED50 (or MED), vs compound 1
  average safety index relative to compound 1: about 1.6 times
[13]; vs compound 1
  toxicity relative to compound 1: less toxic than compound 1
[13]
  toxicity compared with indomethacin (in words): far weaker than those of indomethacin
